The IC50 is the concentration needed to halve the response being measured.

Read-outs that look alike come from different tables or passages of the source.

In one data set the test system is bEnd.3 cells. Briefly: MTT viability assay, bEnd.3 cells. Format: cell-based, mouse. As to conditions: Mus musculus, BEND3, 48 h incubation, mean, n = 3, read-out: IC50 against bEnd.3 cells. The protocol:
The anticancer activities of the exemplary compounds listed in Example 1 were tested against human cervix Hela cells, mammary breast cancer MDA-MB-231 cells, human hepatocellular HepG2 cells, human colorectal HCT116 cells, mammary ductal T47D cells, non-cancerous NIH3T3 cells, dog's kidney MDCK cells, and mouse brain bEnd.3 cells, respectively.
For orientation: Formazan colour is commonly taken as a measure of viable cells.

The test system of a further data set is HL-60 cells. Nature of the data set: MTT viability assay, HL-60 cells. As to conditions: for IC50: Homo sapiens, HL-60. It is filed as cell-based.

On to `CC(C)(C)C1CCC2(CC1)OOC1(CCC(OC(=O)NCCC[P+](c3ccccc3)(c3ccccc3)c3ccccc3)CC1)OO2.[Br-]` (stereo not shown) [Compound 37b, (3-((((12-(tert-butyl)-7,8,15,16-tetraoxadispiro[5.2.59.26]hexadecan-3-yl)oxy)carbonyl)amino)propyl)triphenylphosphonium bromide], for which the IC50 in the data set with bEnd.3 cells is 5.2 µM.

For `CC(C)(C)C1CCC2(CC1)OOC1(CCC(OC(=O)NCCC[N+](C)(Cc3ccccc3)Cc3ccccc3)CC1)OO2.[I-]` (stereo not shown) [Compound 48, N,N-dibenzyl-3-((((12-(tert-butyl)-7,8,15,16-tetraoxadispiro[5.2.59.26]hexadecan-3-yl)oxy)carbonyl)amino)-N-methylpropan-1-aminium iodide], the IC50 with HL-60 cells (MTT, 48 h incubation, mean, n = 3, read-out: IC50 against HL-60 cells) came out at 1.2 ± 0.9 µM; with HL-60 cells (Table 12b, read-out: IC50 HL-60) it was 1.2 ± 0.9 µM; in the data set with HL-60 cells (Table 13, experimental data, MTT, 48 hrs, n = 3, read-out: IC50 HL-60), 1.2 ± 0.9 µM. Moreover, in the data set on HL-60 cells (Table 13, value in bracket), the “selectivity index (IC50 of NIH3T3 divided by IC50 on HL-60)” value is given as “(>24)”. In addition, the “fold more cytotoxic to HL-60 cells than OZ439” value in the data set with HL-60 cells (comparator OZ439) was “at least 9 fold”. For the same compound, in the data set with HL-60 cells (comparator RKA182), the “fold more potent than RKA182 in HL-60 cells” value is 9 fold.

These data come from patent US20240101584A1, “TARGETED DELIVERY OF 1,2,4,5 TETRAOXANE COMPOUNDS AND THEIR USES” (Westlake University, priority 2021, published 2024).
